{
  "source": "paper PMC3867523",
  "about": "(Journal of hepatology, 2013)",
  "note": "Ends that are not written are not given here.",
  "data": [
    {"target": "HLA-B*27:05 (Homo sapiens, UniProt P01889, D138H/D201E/E176V/E204Q/G107R/H137Y/K202T/N104T/N87E/Q56L/Q94K/R106L/R155S/R180L/S101D/S121N/S48T/Y140D/Y33H/Y91C)", "assay": "biochemical", "assay_type": "binding", "units": {"IC50": "nM"}, "values": [
      {"sequence": "ARHTPVNSW [NS5B-2820]", "IC50": 338},
      {"sequence": "ARMILMTHF [NS5B-2841]", "IC50": 1.1},
      {"sequence": "GRAAICGKY [NS5B-2936]", "IC50": 1}
    ]}
  ]
}
